For data set [1], the system named is TTR. In words: TTR editing in primary human hepatocytes transfected with Spy Cas9 mRNA and dgRNAs (Table 9). The format is cell-based. Particulars: dgRNA co-transfected with Spy Cas9 mRNA (SEQ ID NO:2). The method, boiled down: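 PHH sequentially lipofected with Spy Cas9 mRNA (100 ng), then crRNA plus tracrRNA (25 nM each) dual-guide lipoplex. Cells harvested 24, 48 or 72 h post-transfection; TTR target amplicons sequenced on Illumina MiSeq, editing given as percent reads with indels or substitutions over total reads.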

In data set [2] the test system is TTR. The data set is described as follows: TTR editing in HUH7 cells transfected with Spy Cas9 mRNA and dgRNAs (Table 5). The format is cell-based, human. Particulars: HUH7 cells co-transfected with Spy Cas9 mRNA (SEQ ID NO:2) and dgRNAs. The method, boiled down: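 HUH7 cells were transfected sequentially with Spy Cas9 mRNA (100 ng) then crRNA and tracer RNA (25 nM each) by lipofection. Genomic DNA was collected 24, 48 or 72 h later. Target site was PCR-amplified and NGS-sequenced, and percent editing was taken as reads with indels or substitutions over total reads.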

Data set [3] has as its system TTR. In words: TTR editing in HEK293_Cas9 cells transfected with dgRNAs (Table 4). In kind it is cell-based, human. Particulars: HEK293_Cas9 cells (constitutively express Spy Cas9) transfected with dgRNAs. Put shortly:
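Spy Cas9-expressing HEK293 cells were transfected by lipofection with crRNA (25 nM) plus trRNA (25 nM) and harvested at 24, 48 or 72 h. The target site was PCR-amplified and sequenced on MiSeq. Percent editing is reads with indels or substitutions over total reads.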

In data set [4] the test system is TTR. In words: TTR editing in primary human hepatocytes electroporated with Spy Cas9 protein loaded with dgRNAs (Table 7). In kind it is cell-based. Particulars: dgRNA electroporated with Spy Cas9 protein (RNP). The method, boiled down:
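Primary human or cynomolgus hepatocytes electroporated (Lonza P3 buffer, program EX-147) with Spy Cas9 RNP carrying pre-annealed crRNA/trRNA dual guides. Genomic DNA harvested at 24, 48 or 72 h; target amplicons sequenced by Illumina MiSeq. Percent editing = reads with indels or substitutions over total reads.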

As for “AUUGGUGACGACAGCCGUGG (tested as dual guide RNA, chemistry not given here) [CR003389]”, the “Avg % Deletion” value came out at 2.83% with TTR [1], 50.90% in the data set on TTR [2], 23.87% in the data set on TTR [3] and 0.50% with TTR [4]. In addition, the “Avg % Edit” value in the data set with TTR [1] is listed as 44.27%; in the data set with TTR [2] it was 62.32%; in the data set on TTR [3], 34.18%; in the data set on TTR [4], 27.67%. Also, the “Avg % Insert” value in the data set on TTR [1] was found to be 41.47%; in the data set on TTR [2], 13.19%; with TTR [3] it was 10.30%; with TTR [4], 27.20%.
Consider “GACGACAGCCGUGGUGGAAU (tested as dual guide RNA, chemistry not given here) [CR003388]”, for which the “Avg % Deletion” value was found to be 1.17% in the data set on TTR [1], 56.45% in the data set on TTR [2], 17.82% with TTR [3] and 0.27% with TTR [4]. Further, the “Avg % Edit” value in the data set with TTR [1] is given as 12.97%; in the data set with TTR [2], 59.48%; with TTR [3], 19.23%; with TTR [4], 5.70%. The “Avg % Insert” value is recorded as 11.87% in the data set on TTR [1], 3.88% with TTR [2], 1.41% in the data set on TTR [3] and 5.47% in the data set on TTR [4].
“GUGAGUCUGGAGAGCUGCAU (tested as dual guide RNA, chemistry not given here) [CR003360]”: the “Avg % Deletion” value with TTR [1] amounted to 0.90%; in the data set with TTR [2], 55.13%; in the data set on TTR [3], 19.98%; in the data set with TTR [4], 0.63%. For the same sequence, the “Avg % Edit” value in the data set on TTR [1] came out at 14.90%; in the data set on TTR [2] it was 58.62%; with TTR [3], 22.68%; with TTR [4], 32.23%. Also, the “Avg % Insert” value with TTR [1] was found to be 14.13%; in the data set with TTR [2], 5.01%; with TTR [3], 2.70%; in the data set with TTR [4] it was 31.67%.
“AAAGUUCUAGAUGCUGUCCG (tested as dual guide RNA, chemistry not given here) [CR003346]”: the “Avg % Deletion” value amounted to 14.33% in the data set on TTR [1], 6.97% in the data set on TTR [2], 15.30% in the data set with TTR [3] and 14.83% with TTR [4]. In addition, the “Avg % Edit” value with TTR [1] is reported as 19.97%; in the data set on TTR [2], 18.07%; with TTR [3], 48.33%; with TTR [4], 35.67%. The “Avg % Insert” value turned out to be 5.63% with TTR [1], 13.17% with TTR [2], 33.03% in the data set with TTR [3] and 20.83% in the data set with TTR [4].
As for “CCGUGGUGGAAUAGGAGUAG (tested as dual guide RNA, chemistry not given here) [CR003386]”, the “Avg % Deletion” value with TTR [1] is given as 0.13%; with TTR [2] it was 69.34%; in the data set on TTR [3] it was 30.18%; in the data set with TTR [4], 0.47%. Besides, the “Avg % Edit” value is listed as 8.27% with TTR [1], 69.40% in the data set on TTR [2], 33.12% in the data set with TTR [3] and 4.90% with TTR [4]. The “Avg % Insert” value is 8.20% in the data set with TTR [1], 0.53% with TTR [2], 2.94% in the data set on TTR [3] and 4.47% in the data set with TTR [4].
Regarding “CUUCUCUACACCCAGGGCAC (tested as dual guide RNA, chemistry not given here) [CR003342]”, the “Avg % Deletion” value in the data set with TTR [1] came out at 1.50%; with TTR [2], 44.66%; in the data set with TTR [3], 35.38%; in the data set on TTR [4], 0.90%. Further, the “Avg % Edit” value is listed as 22.10% in the data set with TTR [1], 45.14% with TTR [2], 36.57% in the data set with TTR [3] and 32.77% in the data set on TTR [4]. In addition, the “Avg % Insert” value was 20.60% in the data set on TTR [1], 1.23% in the data set on TTR [2], 1.19% in the data set on TTR [3] and 31.87% in the data set on TTR [4].
In the case of “GCGGCAAUGGUGUAGCGGCG (tested as dual guide RNA, chemistry not given here) [CR003377]”, the “Avg % Deletion” value is on record as 0.57% in the data set on TTR [1], 29.89% in the data set with TTR [2], 21.99% in the data set with TTR [3] and 0.10% in the data set on TTR [4]. Besides, the “Avg % Edit” value in the data set with TTR [1] amounted to 17.53%; in the data set with TTR [2], 34.93%; with TTR [3], 24.70%; in the data set with TTR [4], 10.23%. In addition, the “Avg % Insert” value in the data set on TTR [1] is 16.97%; in the data set with TTR [2] it was 5.59%; with TTR [3] it was 2.71%; in the data set on TTR [4] it was 10.13%.

The values above are taken from patent US11795460B2, “Compositions and methods for TTR gene editing and treating ATTR amyloidosis” (Intellia Therapeutics, Inc., priority 2017, dated 2023).
